Legend:
Assay in all cases: radiometric filter-binding kinase assay, Kinase HotSpot
Details in all cases: compound 0.5 µM; ATP 10 µM
TGFBR1 (human) = TGFBR1 (human) (UniProt P36897)
TXK (human) = TXK (human) (UniProt P42681)
AKT3 (human) = AKT3 (human) (UniProt Q9Y243)
RAF1 (human) = RAF1 (human) (UniProt P04049)
RPS6KB1 (human) = RPS6KB1 (human) (UniProt P23443)
CDK5 CDK5R1 p35 (human) = CDK5 CDK5R1 p35 (human) (UniProt Q00535+Q15078)
CDK9 CCNK (human) = CDK9 CCNK (human) (UniProt O75909+P50750)
Chain of CDK9 CCNK (human) (O75909 whole entry, looked up): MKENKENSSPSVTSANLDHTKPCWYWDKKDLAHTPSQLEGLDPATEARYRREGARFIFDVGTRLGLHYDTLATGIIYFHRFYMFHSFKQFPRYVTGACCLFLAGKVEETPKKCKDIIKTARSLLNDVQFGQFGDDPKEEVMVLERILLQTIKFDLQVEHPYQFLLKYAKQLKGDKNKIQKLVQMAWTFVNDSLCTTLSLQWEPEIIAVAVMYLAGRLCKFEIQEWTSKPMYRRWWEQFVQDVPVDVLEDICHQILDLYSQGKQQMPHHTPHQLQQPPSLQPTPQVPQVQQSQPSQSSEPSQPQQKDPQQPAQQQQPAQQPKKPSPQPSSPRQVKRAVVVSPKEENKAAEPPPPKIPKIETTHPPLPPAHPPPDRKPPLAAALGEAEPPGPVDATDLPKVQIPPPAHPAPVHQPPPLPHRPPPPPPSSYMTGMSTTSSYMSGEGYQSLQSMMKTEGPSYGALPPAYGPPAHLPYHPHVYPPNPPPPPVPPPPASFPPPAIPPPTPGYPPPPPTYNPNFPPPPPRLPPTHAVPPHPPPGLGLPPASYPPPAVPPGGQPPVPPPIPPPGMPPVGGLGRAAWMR
Chain of CDK9 CCNK (human) (P50750 whole entry, looked up): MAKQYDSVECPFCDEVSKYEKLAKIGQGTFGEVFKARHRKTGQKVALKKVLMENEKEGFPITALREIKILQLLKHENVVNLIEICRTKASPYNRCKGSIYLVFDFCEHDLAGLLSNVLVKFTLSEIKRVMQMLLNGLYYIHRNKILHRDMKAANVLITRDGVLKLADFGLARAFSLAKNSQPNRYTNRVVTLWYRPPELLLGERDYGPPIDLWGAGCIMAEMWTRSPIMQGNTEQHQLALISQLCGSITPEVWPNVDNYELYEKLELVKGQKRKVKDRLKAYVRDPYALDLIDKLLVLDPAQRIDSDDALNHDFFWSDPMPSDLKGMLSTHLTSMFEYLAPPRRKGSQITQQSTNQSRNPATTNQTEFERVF

PKN1 (human) = PKN1 (human) (UniProt Q16512)
MAP3K7 TAB1 (human) = MAP3K7 TAB1 (human) (UniProt O43318+Q15750)
FES (human) = FES (human) (UniProt P07332)
PHKG1 (human) = PHKG1 (human) (UniProt Q16816)
PRKCZ (human) = PRKCZ (human) (UniProt Q05513)
CDK1 CCNB1 (human) = CDK1 CCNB1 (human) (UniProt P06493+P14635)
CAMK2D (human) = CAMK2D (human) (UniProt Q13557)
STK4 (human) = STK4 (human) (UniProt Q13043)
LTK (human) = LTK (human) (UniProt P29376)
STK33 (human) = STK33 (human) (UniProt Q9BYT3)
Chain of STK33 (human) (Q9BYT3 whole entry, looked up): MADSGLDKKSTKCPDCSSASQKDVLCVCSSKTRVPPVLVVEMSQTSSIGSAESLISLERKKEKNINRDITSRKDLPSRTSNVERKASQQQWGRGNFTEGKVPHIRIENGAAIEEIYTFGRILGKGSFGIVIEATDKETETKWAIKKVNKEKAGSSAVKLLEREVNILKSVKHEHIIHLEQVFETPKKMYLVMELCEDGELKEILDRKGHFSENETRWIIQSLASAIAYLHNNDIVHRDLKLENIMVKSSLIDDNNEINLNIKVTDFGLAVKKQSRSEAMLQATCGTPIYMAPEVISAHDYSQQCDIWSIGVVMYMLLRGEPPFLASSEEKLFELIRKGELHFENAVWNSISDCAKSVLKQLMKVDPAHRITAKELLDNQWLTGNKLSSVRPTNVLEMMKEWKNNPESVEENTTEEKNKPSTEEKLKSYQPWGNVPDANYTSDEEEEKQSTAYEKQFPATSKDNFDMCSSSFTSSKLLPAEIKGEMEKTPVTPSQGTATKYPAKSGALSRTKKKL

MAP3K9 (human) = MAP3K9 (human) (UniProt P80192)
AXL (human) = AXL (human) (UniProt P30530)
Chain of AXL (human) (P30530 whole entry, looked up): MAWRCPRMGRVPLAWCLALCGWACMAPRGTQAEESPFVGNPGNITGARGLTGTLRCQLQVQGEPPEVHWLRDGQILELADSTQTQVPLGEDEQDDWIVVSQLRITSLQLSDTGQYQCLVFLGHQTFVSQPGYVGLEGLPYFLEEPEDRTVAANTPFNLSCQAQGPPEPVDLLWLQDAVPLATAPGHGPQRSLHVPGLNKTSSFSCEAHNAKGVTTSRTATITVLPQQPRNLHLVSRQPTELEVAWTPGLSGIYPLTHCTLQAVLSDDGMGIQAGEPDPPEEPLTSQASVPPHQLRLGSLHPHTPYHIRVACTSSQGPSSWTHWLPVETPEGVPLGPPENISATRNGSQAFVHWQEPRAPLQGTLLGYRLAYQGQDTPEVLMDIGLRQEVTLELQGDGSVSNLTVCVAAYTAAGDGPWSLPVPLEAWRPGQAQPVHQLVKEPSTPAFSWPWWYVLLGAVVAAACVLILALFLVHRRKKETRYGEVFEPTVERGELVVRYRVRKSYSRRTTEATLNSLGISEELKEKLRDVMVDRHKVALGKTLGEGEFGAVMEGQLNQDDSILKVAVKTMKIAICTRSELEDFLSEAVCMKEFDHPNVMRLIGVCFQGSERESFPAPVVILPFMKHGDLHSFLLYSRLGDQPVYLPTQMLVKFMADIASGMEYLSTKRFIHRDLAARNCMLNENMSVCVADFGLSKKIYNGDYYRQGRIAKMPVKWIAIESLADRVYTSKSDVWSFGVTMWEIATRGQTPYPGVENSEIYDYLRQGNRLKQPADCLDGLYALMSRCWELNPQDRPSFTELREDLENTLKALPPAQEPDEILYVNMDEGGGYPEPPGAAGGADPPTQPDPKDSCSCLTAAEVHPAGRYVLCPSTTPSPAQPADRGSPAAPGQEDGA

CAMK1 (human) = CAMK1 (human) (UniProt Q14012)
IRAK4 (human) = IRAK4 (human) (UniProt Q9NWZ3)
Chain of IRAK4 (human) (Q9NWZ3 whole entry, looked up): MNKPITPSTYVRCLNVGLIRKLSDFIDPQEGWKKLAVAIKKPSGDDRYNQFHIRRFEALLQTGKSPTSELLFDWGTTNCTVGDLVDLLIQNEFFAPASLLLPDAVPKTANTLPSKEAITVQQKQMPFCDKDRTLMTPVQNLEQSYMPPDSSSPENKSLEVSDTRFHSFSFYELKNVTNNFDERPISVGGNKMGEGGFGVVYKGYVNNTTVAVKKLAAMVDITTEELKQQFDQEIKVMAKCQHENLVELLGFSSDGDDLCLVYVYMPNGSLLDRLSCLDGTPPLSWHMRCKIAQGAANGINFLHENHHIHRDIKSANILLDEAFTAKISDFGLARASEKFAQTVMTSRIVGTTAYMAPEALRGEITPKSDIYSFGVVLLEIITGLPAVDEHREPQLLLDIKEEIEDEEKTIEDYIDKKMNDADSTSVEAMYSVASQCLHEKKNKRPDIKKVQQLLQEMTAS

MAPK3 (human) = MAPK3 (human) (UniProt P27361)
CAMK1G (human) = CAMK1G (human) (UniProt Q96NX5)
Chain of CAMK1G (human) (Q96NX5 whole entry, looked up): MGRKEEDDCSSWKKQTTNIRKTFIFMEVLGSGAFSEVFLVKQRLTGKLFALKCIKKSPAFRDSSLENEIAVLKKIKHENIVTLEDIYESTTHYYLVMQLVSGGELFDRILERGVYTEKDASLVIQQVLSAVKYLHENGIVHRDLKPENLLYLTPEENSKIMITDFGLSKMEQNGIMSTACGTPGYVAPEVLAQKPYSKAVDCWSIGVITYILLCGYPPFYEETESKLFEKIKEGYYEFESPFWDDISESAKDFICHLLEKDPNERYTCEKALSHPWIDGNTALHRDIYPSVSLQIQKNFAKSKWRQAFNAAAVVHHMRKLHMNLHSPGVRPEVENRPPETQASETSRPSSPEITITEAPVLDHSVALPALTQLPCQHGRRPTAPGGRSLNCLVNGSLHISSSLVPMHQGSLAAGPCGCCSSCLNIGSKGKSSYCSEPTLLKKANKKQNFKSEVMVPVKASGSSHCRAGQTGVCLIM

AURKC (human) = AURKC (human) (UniProt Q9UQB9)
STK17A (human) = STK17A (human) (UniProt Q9UEE5)
DAPK1 (human) = DAPK1 (human) (UniProt P53355)
DYRK2 (human) = DYRK2 (human) (UniProt Q92630)
CSNK2A2 (human) = CSNK2A2 (human) (UniProt P19784)
RPS6KA2 KD1 KD2 (human) = RPS6KA2 KD1 KD2 (human) (UniProt Q15349)
MAPK1 (human) = MAPK1 (human) (UniProt P28482)
Chain of MAPK1 (human) (P28482 whole entry, looked up): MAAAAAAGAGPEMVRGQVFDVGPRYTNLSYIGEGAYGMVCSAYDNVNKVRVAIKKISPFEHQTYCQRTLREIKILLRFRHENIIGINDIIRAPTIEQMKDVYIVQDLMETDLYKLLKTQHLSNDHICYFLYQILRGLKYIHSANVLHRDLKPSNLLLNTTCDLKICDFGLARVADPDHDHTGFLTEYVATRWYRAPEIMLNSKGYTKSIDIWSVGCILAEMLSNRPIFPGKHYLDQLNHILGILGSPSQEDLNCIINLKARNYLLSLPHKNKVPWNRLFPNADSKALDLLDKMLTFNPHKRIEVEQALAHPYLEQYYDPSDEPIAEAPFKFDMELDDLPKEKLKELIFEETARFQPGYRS

RIPK2 (human) = RIPK2 (human) (UniProt O43353)
CAMK2B (human) = CAMK2B (human) (UniProt Q13554)
MAP4K4 (human) = MAP4K4 (human) (UniProt O95819)
MAP3K5 (human) = MAP3K5 (human) (UniProt Q99683)
EPHA4 (human) = EPHA4 (human) (UniProt P54764)
CSK (human) = CSK (human) (UniProt P41240)
PIM2 (human) = PIM2 (human) (UniProt Q9P1W9)
TEK (human) = TEK (human) (UniProt Q02763)
PTK2 (human) = PTK2 (human) (UniProt Q05397)
CDK6 CCND1 (human) = CDK6 CCND1 (human) (UniProt Q00534+P24385)
Chain of CDK6 CCND1 (human) (P24385 whole entry, looked up): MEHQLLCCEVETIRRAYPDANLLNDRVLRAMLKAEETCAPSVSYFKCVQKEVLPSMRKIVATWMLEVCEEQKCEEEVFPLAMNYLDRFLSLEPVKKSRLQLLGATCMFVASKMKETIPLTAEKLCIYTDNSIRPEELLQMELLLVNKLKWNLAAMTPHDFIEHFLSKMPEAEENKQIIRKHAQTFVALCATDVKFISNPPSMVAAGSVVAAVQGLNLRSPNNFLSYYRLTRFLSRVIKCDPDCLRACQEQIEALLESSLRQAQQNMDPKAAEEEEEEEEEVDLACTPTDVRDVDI
Chain of CDK6 CCND1 (human) (Q00534 whole entry, looked up): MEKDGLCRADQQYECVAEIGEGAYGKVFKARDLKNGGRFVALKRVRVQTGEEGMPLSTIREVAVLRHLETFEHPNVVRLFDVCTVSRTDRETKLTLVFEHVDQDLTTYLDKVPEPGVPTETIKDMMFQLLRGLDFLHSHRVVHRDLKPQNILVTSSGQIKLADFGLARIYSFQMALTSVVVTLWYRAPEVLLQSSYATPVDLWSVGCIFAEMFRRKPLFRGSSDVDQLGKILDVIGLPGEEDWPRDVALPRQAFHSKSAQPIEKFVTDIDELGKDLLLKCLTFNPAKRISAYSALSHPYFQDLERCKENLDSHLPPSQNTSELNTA

BRSK2 (human) = BRSK2 (human) (UniProt Q8IWQ3)

Chain of AKT3 (human) (Q9Y243 whole entry, looked up): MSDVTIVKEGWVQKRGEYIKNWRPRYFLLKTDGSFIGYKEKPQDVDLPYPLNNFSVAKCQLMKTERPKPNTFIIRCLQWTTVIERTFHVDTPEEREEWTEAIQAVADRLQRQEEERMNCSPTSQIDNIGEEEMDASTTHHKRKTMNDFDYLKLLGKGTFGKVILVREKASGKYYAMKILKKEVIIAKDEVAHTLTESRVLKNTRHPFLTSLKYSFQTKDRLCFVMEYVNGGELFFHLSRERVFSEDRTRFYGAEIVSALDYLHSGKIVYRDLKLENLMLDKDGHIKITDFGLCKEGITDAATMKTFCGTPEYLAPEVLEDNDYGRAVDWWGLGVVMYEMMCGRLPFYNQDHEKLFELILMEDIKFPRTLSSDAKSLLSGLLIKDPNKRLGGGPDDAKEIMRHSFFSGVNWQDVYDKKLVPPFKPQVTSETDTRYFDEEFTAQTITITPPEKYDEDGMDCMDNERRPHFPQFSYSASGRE

CCOc1cc2ncnc(Nc3cccc(Br)c3)c2cc1OCC
residual activity (TGFBR1 (human)): 96.9% | residual activity (TXK (human)): 80.2% | residual activity (AKT3 (human)): 104% | residual activity (RAF1 (human)): 91.6% | residual activity (RPS6KB1 (human)): 95.8% | residual activity (CDK5 CDK5R1 p35 (human)): 99.2% | residual activity (CDK9 CCNK (human)): 102% | residual activity (PKN1 (human)): 100% | residual activity (MAP3K7 TAB1 (human)): 102% | residual activity (FES (human)): 96.8% | residual activity (PHKG1 (human)): 84.2% | residual activity (PRKCZ (human)): 97.8% | residual activity (CDK1 CCNB1 (human)): 80.8% | residual activity (CAMK2D (human)): 87% | residual activity (STK4 (human)): 98.5% | residual activity (LTK (human)): 69.7% | residual activity (STK33 (human)): 93.9% | residual activity (MAP3K9 (human)): 96.1% | residual activity (AXL (human)): 89.9% | residual activity (CAMK1 (human)): 79.9% | residual activity (IRAK4 (human)): 102% | residual activity (MAPK3 (human)): 113% | residual activity (CAMK1G (human)): 97.2% | residual activity (AURKC (human)): 83.7% | residual activity (STK17A (human)): 98.9% | residual activity (DAPK1 (human)): 77.4% | residual activity (DYRK2 (human)): 88.8% | residual activity (CSNK2A2 (human)): 93.8% | residual activity (RPS6KA2 KD1 KD2 (human)): 74.5% | residual activity (MAPK1 (human)): 104% | residual activity (RIPK2 (human)): 39.8% | residual activity (CAMK2B (human)): 98.8% | residual activity (MAP4K4 (human)): 67% | residual activity (MAP3K5 (human)): 116% | residual activity (EPHA4 (human)): 75.1% | residual activity (CSK (human)): 94% | residual activity (PIM2 (human)): 98.9% | residual activity (TEK (human)): 96.4% | residual activity (PTK2 (human)): 101% | residual activity (CDK6 CCND1 (human)): 102% | residual activity (BRSK2 (human)): 94%

O=C1NC(=O)c2cc(Nc3ccc(F)cc3)c(Nc3ccc(F)cc3)cc21
residual activity (TGFBR1 (human)): 98.1% | residual activity (TXK (human)): 84.1% | residual activity (AKT3 (human)): 100% | residual activity (RAF1 (human)): 81.9% | residual activity (RPS6KB1 (human)): 95.5% | residual activity (CDK5 CDK5R1 p35 (human)): 98.5% | residual activity (CDK9 CCNK (human)): 90.8% | residual activity (PKN1 (human)): 97.7% | residual activity (MAP3K7 TAB1 (human)): 98.8% | residual activity (FES (human)): 99.5% | residual activity (PHKG1 (human)): 94.8% | residual activity (PRKCZ (human)): 100% | residual activity (CDK1 CCNB1 (human)): 103% | residual activity (CAMK2D (human)): 97.9% | residual activity (STK4 (human)): 101% | residual activity (LTK (human)): 99.7% | residual activity (STK33 (human)): 99.3% | residual activity (MAP3K9 (human)): 102% | residual activity (AXL (human)): 104% | residual activity (CAMK1 (human)): 104% | residual activity (IRAK4 (human)): 98.1% | residual activity (MAPK3 (human)): 86.1% | residual activity (CAMK1G (human)): 106% | residual activity (AURKC (human)): 90.8% | residual activity (STK17A (human)): 104% | residual activity (DAPK1 (human)): 81.3% | residual activity (DYRK2 (human)): 89.1% | residual activity (CSNK2A2 (human)): 104% | residual activity (RPS6KA2 KD1 KD2 (human)): 98.7% | residual activity (MAPK1 (human)): 121% | residual activity (RIPK2 (human)): 95% | residual activity (CAMK2B (human)): 98.7% | residual activity (MAP4K4 (human)): 91.2% | residual activity (MAP3K5 (human)): 96.6% | residual activity (EPHA4 (human)): 94% | residual activity (CSK (human)): 92% | residual activity (PIM2 (human)): 98.6% | residual activity (TEK (human)): 97.6% | residual activity (PTK2 (human)): 96% | residual activity (CDK6 CCND1 (human)): 99% | residual activity (BRSK2 (human)): 96.8%

Source: the kinase profiling compilation of Christmann-Franck et al. (2016)
